Entries after “also recorded” stand apart in the source; their conditions may differ.
Assays:
[1] = system: human prostate cancer cells DU145; conditions: one month
Procedure: Additional feasibility studies were performed using two lipid soluble agents, Indium-111-oxine and Indium-111-Mercaptopyridine-N-oxide (Merc). Human prostate and human breast tumors were grown in two separate groups of nude mice. Six mice in each group were divided in two subgroups of 3 mice each. Three mice were treated with intratumoral injections of either Indium-111-oxine or Indium-111-Merc. Each group of mice was then placed in rodent cages separately and cared for with regular diet and water ad lib. Each day the animals were weighed, and tumor diameter was measured three times with a Vernier caliper.
Radioactivity received by each animal was carefully measured, and each day the amount of radioactivity retained in the animal body was measured using an energy calibrated radiation dose calibrator. Two weeks after the first injection, a second dose of the same agent was readministered, also intratumorally and the procedure was followed as described above, for the next two weeks. […] Indium-111 associated with each tissue was counted, and the radioactivity distributed in each organ was calculated as the percent of the total radioactivity retrained in each animal. Histology on critical organs, such as the liver, bladder, and kidney, as well as tumor histology, was assessed in treated animals and in untreated control animals. […]

[2] = Distribution of radioactivity in tumor and organs at sacrifice; type: in vivo, nude mice
From the text: (§1) These organs were then weighed.

cells = conditions: cited from earlier work
[3] = Retention of radioactivity after intratumoral injection, first study (gamma camera, ionization chamber); type: in vivo, athymic nude mice
[4] = system: human colorectal carcinoma cells LS174T; conditions: single intratumoral injection, day 22, control tumor 3.2 cm
Procedure: Tumors were allowed to grow to approximately 0.5 cm in diameter.
On day one, two of the four tumor-bearing mice received a single intratumoral injection of approximately 100 μl Indium-111-oxine. Mice were placed in an ionization chamber, and radioactivity was recorded after the injection and then daily for 28 days. On each day, radioactivity was corrected for decay, and the percent of injected dose retained in the animal was calculated and recorded. Animals were also weighed daily in a calibrated balance.
On day one, all four mice were lightly anesthetized and photographs taken. Mice receiving Indium-111-oxine were also imaged with a gamma camera 28 days later. This qualitatively recorded the distribution of radioactivity, 28 days after it was injected.The control animals received a single intratumoral injection of 100 μl of 25% ethanol in 0.9% NaCl. Two radioactive animals and the control animals were then cared for in two separated cages and allowed to eat and drink at liberty.
On day 22, the two mice treated with Indium-111-oxine received 100 μl of Indium-111-Merc each in two places in tumors. The control animals also received two intratumoral injection of 0.05 M phosphate buffer pH−7.4.
As before, the mice were weighed daily and radioactivity remaining in their bodies was measured for an additional 10 days.

[5] = Body weight, additional studies; type: in vivo, nude mice; conditions: treatment period
Procedure: Human prostate and human breast tumors were grown in two separate groups of nude mice. Six mice in each group were divided in two subgroups of 3 mice each. Three mice were treated with intratumoral injections of either Indium-111-oxine or Indium-111-Merc. Each group of mice was then placed in rodent cages separately and cared for with regular diet and water ad lib. Each day the animals were weighed, and tumor diameter was measured three times with a Vernier caliper.

[6] = cited from earlier work
[7] = system: human breast cancer cells T47D; assay: Intratumoral injection study on T47D tumor-bearing nude mice: tumor size; type: in vivo; conditions: one month
Procedure: as §1
Indium-111-Merc was prepared also by a method described previously. (Thakur et al, J Nucl Med 26: 518-523, 1985). Briefly, to one ml 0.067 M phosphate buffer pH 7.4, a required quantity of Indium-111-chloride was added followed by 50 μg Merc in 50 μl 0.067 M phosphate buffer pH 7.4. The reaction mixture was vortexed, and resultant Indium-111-Merc was extracted in chloroform or methylene chloride. This was evaporated to dryness, and the complex was taken up in 50 μl ethanol and 150 μl 0.9% NaCl. A known amount of radioactivity in 50 μl was then injected directly into the tumor in each mouse.
For treatment with Indium-111-Merc, human breast cancer cells (5×10^6) T47D were implanted similarly. These were also allowed to grow to up to 0.5 cm in diameter.

| Molecule | tumor growth in treated mice (tumor size versus time, FIG. 4) ([1]; DU145 tumor-bearing nude mice) | average tumor growth during the treatment period ([1]; DU145 tumors, two intratumoral doses two weeks apart, untreated mice 200%) | kidney uptake at sacrifice ([2]; DU145 tumor-bearing mice) | liver uptake at sacrifice ([2]; DU145 tumor-bearing mice) | injected activity retained in tumor at sacrifice ([2]; DU145 tumor-bearing mice, corrected for decay) | labeling of cells in the presence of plasma (cells) | radioactivity retained in the tumor (gamma camera image) ([3]; 22 days after intratumoral Indium-111-oxine injection) | tumor growth in treated animal [4] | body weight change ([5]; DU145 tumor-bearing mice, on the average) | injected activity retained in tumor at sacrifice ([2]; T47D tumor-bearing mice) | kidney activity at sacrifice ([2]; T47D tumor-bearing mice) | liver activity at sacrifice ([2]; T47D tumor-bearing mice) | stability in plasma [6] | radioactivity still in the tumor (gamma camera image) ([3]; 10 days after intratumoral Indium-111-Merc injection) | radioactivity retained in animal body ([3]; ten days after the injection of Indium-111-Merc) | tumor growth in treated mice (tumor size versus time, FIG. 5) ([7]; T47D tumor-bearing nude mice) | average tumor growth in the treated mice ([7]; T47D tumors, two intratumoral doses two weeks apart, untreated controls 477%) | body weight change ([5]; T47D tumor-bearing mice) |
| --- | --- | --- | --- | --- | --- | --- | --- | --- | --- | --- | --- | --- | --- | --- | --- | --- | --- | --- |
| [111In+3].[O-]c1cccc2cccnc12.[O-]c1cccc2cccnc12.[O-]c1cccc2cccnc12 [Indium-111-oxine, Indium-111-oxine (8-hydroxyquinoline)] | arrested | 117% | 7.5% | 5.4% | 86.5% | not capable of binding cells in plasma; also recorded: cannot efficiently label cells | a major proportion; also recorded: nearly all | has not grown | none of the treated or untreated mice either gained or lost body weight | – | – | – | – | – | – | – | – | – |
| Indium-111-Merc (2-Mercaptopyridine-N-oxide) | – | – | – | – | – | can label cells in the presence of plasma | – | – | – | 92.97% | 4.03% | 1.02% | does not break down in plasma | a major proportion | all | arrested | 172% | gained some body weight |
